Structures are written as SMILES.

This experiment concerns the target human D1 receptor (Homo sapiens (Human), UniProt P21728). The experiment is described as follows: Human D1 Receptor PAM Assay (cAMP HTRF, potentiator mode with EC20 dopamine). In kind it is cell-based. As to conditions: for EC50: HEK293 cells expressing human D1 receptor, 12 nM dopamine (EC20), cAMP, read-out: Abs EC50; for Emax: fitted top of curve, 0% = EC20 dopamine, 100% = 5 μM dopamine, read-out: % Top (% Potentiation). The source says: The PAM activity of the compounds of the present invention may be measured essentially as described in Svensson et al., An Allosteric Potentiator of the Dopamine D1 Receptor Increases Locomotor Activity in Human D1 Knock-in Mices without Casusing Stereotypy or Tachyphylaxis. J. Pharmacol. Exp. Ther. (2017) 360:117-128.
More specifically, HEK293 cells that stably express the human D1 receptor (Accession number NM_000794) are generated by gene transduction using the pBABE-bleo retroviral vector and selected with Zeocin™ (InvivoGen). At approximately 80% confluency, the cells are harvested using TrypLE™ Express (Gibco), suspended in FBS plus 8% DMSO, and stored in liquid nitrogen. On the day of the assay, cells are thawed and resuspended in STIM buffer (Hanks Balanced Salt Solution supplemented with 0.1% BSA, 20 mM HEPES, 500 μM IBMX, and 100 μM ascorbic acid).
Test compound is serially diluted (1:2) with DMSO into assay plates (ProxiPlate-384 Plus, PerkinElmer) using acoustic dispensing (Labcyte) to provide 20 concentrations for full response curves. […] Plates are incubated at room temperature for a total reaction time of 60 min.
cAMP production is quantified using HTRF® detection (Cisbio) according to the manufacturer's instructions. Generally, lysis buffer containing anti-cAMP cryptate (5 μL) and D2-conjugate (from HTRF® kit) (5 μL) is added to the wells, plates are incubated for an additional 60-90 min, and the time-resolved fluorescence is detected using an EnVision™ plate reader (PerkinElmer). Fluorescence data is converted to cAMP concentrations using a cAMP standard curve and analyzing using a 4-parameter non-linear logistic equation (Genedata Screener, version 13.0.5-standard). For potentiator mode concentration-response curves, results are expressed as percent of the window between a response at EC20 concentration of dopamine alone (normalized to 0%) and the maximum response to dopamine (defined by response to 5 μM dopamine, final concentration, normalized as 100%).
Absolute EC50 values are calculated based on the maximum and minimum responses of the control agonist (dopamine). The % Potentiation (% Top) is determined from the fitted top of the concentration response curve.

Chain of human D1 receptor (P21728 whole entry): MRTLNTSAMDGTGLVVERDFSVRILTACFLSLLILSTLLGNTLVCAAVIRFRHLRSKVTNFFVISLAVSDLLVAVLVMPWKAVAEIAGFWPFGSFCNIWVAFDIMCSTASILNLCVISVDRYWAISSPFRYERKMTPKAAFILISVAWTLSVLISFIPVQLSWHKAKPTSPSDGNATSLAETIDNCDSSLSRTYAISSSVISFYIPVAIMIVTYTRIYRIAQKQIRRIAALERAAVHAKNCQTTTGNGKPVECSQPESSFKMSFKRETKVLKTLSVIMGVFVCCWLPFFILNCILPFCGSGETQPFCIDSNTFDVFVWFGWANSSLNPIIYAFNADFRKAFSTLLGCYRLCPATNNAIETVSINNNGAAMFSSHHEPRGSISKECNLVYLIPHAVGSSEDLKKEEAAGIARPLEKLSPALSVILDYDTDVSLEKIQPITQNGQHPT

In the case of `C[C@H]1c2cccc(-c3cnn(C4CC4)c3)c2C[C@H](CO)N1C(=O)Cc1c(Cl)cccc1Cl` [Example 3, 1-((1S,3R)-5-(1-cyclopropyl-1H-pyrazol-4-yl)-3-(hydroxymethyl)-1-methyl-3,4-dihydroisoquinolin-2(1H)-yl)-2-(2,6-dichlorophenyl)ethan-1-one], the EC50 (usually the midpoint of the concentration-response curve) was 0.287 µM and the Emax was determined as 88.1%.

Consider `C[C@H]1c2cccc(-c3cn[nH]c3)c2C[C@H](CO)N1C(=O)Cc1ccc(F)cc1Cl` [Example 12, 2-(2-chloro-4-fluorophenyl)-1-((1S,3R)-3-(hydroxymethyl)-1-methyl-5-(1H-pyrazol-4-yl)-3,4-dihydroisoquinolin-2(1H)-yl)ethan-1-one], for which the EC50 worked out at 0.54 µM and the Emax was found to be 77.1%.

As to `C[C@H]1c2cccc(-c3cn[nH]c3)c2C[C@H](CO)N1C(=O)Cc1cccc(F)c1F` [Example 14, 2-(2,3-difluorophenyl)-1-((1S,3R)-3-(hydroxymethyl)-1-methyl-5-(1H-pyrazol-4-yl)-3,4-dihydroisoquinolin-2(1H)-yl)ethan-1-one], the half-maximal effective concentration (EC50) worked out at 0.677 µM and the Emax was 72.6%.

On to `C[C@H]1c2cccc(-c3cn[nH]c3)c2C[C@H](CO)N1C(=O)Cc1c(F)cccc1Cl` [Example 9, 2-(2-chloro-6-fluorophenyl)-1-((1S,3R)-3-(hydroxymethyl)-1-methyl-5-(1H-pyrazol-4-yl)-3,4-dihydroisoquinolin-2(1H)-yl)ethan-1-one], for which the EC50 turned out to be 0.028 µM and the Emax came to 81.5%.

Consider `CCn1cc(-c2cccc3c2C[C@H](CO)N(C(=O)Cc2c(Cl)cccc2Cl)[C@H]3C)cn1` [Example 2, 2-(2,6-dichlorophenyl)-1-((1S,3R)-5-(1-ethyl-1H-pyrazol-4-yl)-3-(hydroxymethyl)-1-methyl-3,4-dihydroisoquinolin-2(1H)-yl)ethan-1-one], for which the EC50 came out at 0.172 µM and the Emax was 91.2%.

As for `C[C@H]1c2cccc(-c3cn[nH]c3)c2C[C@H](CO)N1C(=O)Cc1c(F)cccc1F` [Example 10, 2-(2,6-difluorophenyl)-1-((1S,3R)-3-(hydroxymethyl)-1-methyl-5-(1H-pyrazol-4-yl)-3,4-dihydroisoquinolin-2(1H)-yl)ethan-1-one], the EC50 turned out to be 0.127 µM and the Emax came to 78.1%.

With `C[C@H]1c2cccc(-c3cnn(C)c3)c2C[C@H](CO)N1C(=O)Cc1ccccc1Cl` [Example 7, 2-(2-chlorophenyl)-1-((1S,3R)-3-(hydroxymethyl)-1-methyl-5-(1-methyl-1H-pyrazol-4-yl)-3,4-dihydroisoquinolin-2(1H)-yl)ethan-1-one], the EC50 was 0.0812 µM and the Emax stood at 82.4%.

For the compound `C[C@H]1c2cccc(-c3cn[nH]c3)c2C[C@H](CO)N1C(=O)Cc1ccccc1F` [Example 13, 2-(2-fluorophenyl)-1-((1S,3R)-3-(hydroxymethyl)-1-methyl-5-(1H-pyrazol-4-yl)-3,4-dihydroisoquinolin-2(1H)-yl)ethan-1-one], the EC50 amounted to 0.484 µM and the Emax was 89.8%.

Turning to `C[C@H]1c2cccc(-c3cn[nH]c3)c2C[C@H](CO)N1C(=O)Cc1cc(F)ccc1F` [Example 15, 2-(2,5-difluorophenyl)-1-((1S,3R)-3-(hydroxymethyl)-1-methyl-5-(1H-pyrazol-4-yl)-3,4-dihydroisoquinolin-2(1H)-yl)ethan-1-one], the 50% effective concentration (EC50) is 0.836 µM and the Emax was 75.5%.

For the compound `C[C@H]1c2cccc(-c3cnn(CCO)c3)c2C[C@H](CO)N1C(=O)Cc1ccccc1Cl` [Example 5, 1-((1S,3R)-5-(1-(2-(l1-oxidaneyl)ethyl)-1H-pyrazol-4-yl)-3-(hydroxymethyl)-1-methyl-3,4-dihydroisoquinolin-2(1H)-yl)-2-(2-chlorophenyl)ethan-1-one], the EC50 amounted to 0.0183 µM and the Emax is 79.1%.

Consider `C[C@H]1c2cccc(-c3cnn(C4COC4)c3)c2C[C@H](CO)N1C(=O)Cc1c(F)cccc1Cl` [Example 6, 2-(2-chloro-6-fluorophenyl)-1-((1S,3R)-3-(hydroxymethyl)-1-methyl-5-(1-(oxetan-3-yl)-1H-pyrazol-4-yl)-3,4-dihydroisoquinolin-2(1H)-yl)ethan-1-one], for which the EC50 came out at 0.0422 µM and the Emax worked out at 80.4%.

Take `C[C@H]1c2cccc(-c3cn[nH]c3)c2C[C@H](CO)N1C(=O)Cc1cc(F)ccc1Cl` [Example 11, 2-(2-chloro-5-fluorophenyl)-1-((1S,3R)-3-(hydroxymethyl)-1-methyl-5-(1H-pyrazol-4-yl)-3,4-dihydroisoquinolin-2(1H)-yl)ethan-1-one]: the EC50 was determined as 0.112 µM and the Emax was found to be 79.8%.

For the origin of these results see patent US10611751B2, “Dopamine D1 receptor positive allosteric modulators” (Eli Lilly and Company, priority 2018, dated 2020).
